# From patent publication US20030074682A1, “Isolation, characterization, and use of a novel teleost potassium channel” (priority 2001, published 2003)
# Like-named read-outs stand apart in the source and are kept apart here.
# What was measured:
# zebrafish larvae = details: for induction of 2:1 atrioventricular block (atrium beats twice while the ventricle beats once): wild-type larvae bathed in drug, terfenadine 10 μM, astemizol 1 μM, diphenhydramine 100 μM, haloperidol 2 μM, droperidol 50 μM, thioridazin 10 μM, pimozide 0.5 μM, cisapride 5 μM; for arrest of the atrial and ventricular beat: 1 hour incubation; for "real" arrhythmia (atrium and ventricle beating very irregularly): bathing 6 hours
# Description: About 50 zebrafish larvae were incubated for 2-7 d at 22-28° C. in petri dishes filled with 30 ml embryo medium.
# At the day of the experiment 10 larvae were transferred to small petri dishes filled with 10 ml embryo medium, 0.5 ml MESAB solution (0.2% ethyl-m-aminobenzoate methane-sulfonate+1% Na2HPO4×2H2O, pH 7.2) and 10 μl of the respective drug (or +10 μl of a second drug) added from a 1000-fold stock solution prepared with DMSO, these three components were previously mixed in 50 ml plastic tubes (controls only receive 10 or 20 μl DMSO).
# At certain time points the contractility of the heart and blood flow was monitored, and the heart rate was determined by counting the heart beat with the aid of a stereo-microscope.
# In order to evaluate if zebrafish is a suitable model organism to study drug-induced QT-prolongation we investigated the effect of known QT-prolonging medicaments on the heart beat rate of zebrafish larvae. Compounds were added to the media in which the larvae were bathed and the heart beat rate was recorded by microscopy.
# [1] = target: rapidly activating delayed rectifier current K^+ current IKr (Homo sapiens, UniProt Q12809); details: cited from earlier work
# rapidly activating delayed rectifier current K^+ current IKr, sequence (Q12809 whole entry): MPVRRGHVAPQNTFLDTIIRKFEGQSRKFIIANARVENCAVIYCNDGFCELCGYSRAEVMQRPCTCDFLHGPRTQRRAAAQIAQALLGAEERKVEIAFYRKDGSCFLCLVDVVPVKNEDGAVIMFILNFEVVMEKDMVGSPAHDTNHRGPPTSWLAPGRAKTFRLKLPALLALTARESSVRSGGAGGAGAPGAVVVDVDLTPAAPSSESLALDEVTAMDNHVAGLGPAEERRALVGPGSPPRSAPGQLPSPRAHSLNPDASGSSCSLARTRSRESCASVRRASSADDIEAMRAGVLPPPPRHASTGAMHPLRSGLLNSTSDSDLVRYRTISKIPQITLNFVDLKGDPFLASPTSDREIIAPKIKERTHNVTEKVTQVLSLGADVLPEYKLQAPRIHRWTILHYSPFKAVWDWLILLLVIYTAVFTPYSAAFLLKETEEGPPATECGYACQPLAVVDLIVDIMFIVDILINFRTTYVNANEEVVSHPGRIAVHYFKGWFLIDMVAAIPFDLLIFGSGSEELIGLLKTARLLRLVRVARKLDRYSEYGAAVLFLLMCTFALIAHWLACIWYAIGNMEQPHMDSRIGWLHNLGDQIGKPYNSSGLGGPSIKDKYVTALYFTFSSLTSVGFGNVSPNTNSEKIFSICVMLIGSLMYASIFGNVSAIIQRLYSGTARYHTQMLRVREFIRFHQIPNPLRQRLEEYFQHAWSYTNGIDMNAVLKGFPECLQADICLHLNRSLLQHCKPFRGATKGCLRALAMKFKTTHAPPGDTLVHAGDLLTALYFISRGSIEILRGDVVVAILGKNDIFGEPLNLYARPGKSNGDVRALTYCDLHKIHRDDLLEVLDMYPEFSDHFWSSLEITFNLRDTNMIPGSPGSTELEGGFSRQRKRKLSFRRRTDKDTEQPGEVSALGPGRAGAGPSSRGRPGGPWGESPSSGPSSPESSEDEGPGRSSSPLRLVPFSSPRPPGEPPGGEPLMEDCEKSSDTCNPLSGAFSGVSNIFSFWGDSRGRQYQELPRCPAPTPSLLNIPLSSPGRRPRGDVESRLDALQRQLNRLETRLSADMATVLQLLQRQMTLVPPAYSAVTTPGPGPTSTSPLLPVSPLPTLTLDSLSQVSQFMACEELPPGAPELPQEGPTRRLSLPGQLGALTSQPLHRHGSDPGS
# ZERG = test: Antisense ZERG-knockdown: PMO injected into yolk of zebrafish embryos at the 1-4-cell stage, heart function and morphology scored; assay type: in vivo
# Source text: In one embodiment, preferred PMOs comprise a sequence complementary to contiguous nucleotides within nucleotides 1-150 of SEQ ID NO:1; an exemplary PMO sequence is presented in SEQ ID NO:3. As further detailed in the Examples, we generated an antisense PMO corresponding to the first 24 nucleotides of the ZERG coding sequence, as presented in SEQ ID NO:3, and injected these into the yolk of zebrafish embryos at the 1-4 cell stage, according to standard protocols. […] Thus, antisense PMOs may be used to knockdown the ZERG protein, and to phenocopy the breakdance mutant, as well as QT-prolonging drug-treated larvae.
# 24-mer antisense PMOs targeting the 5′ prime region of ZERG (SEQ ID NO:3; start 0-24: GACATGTCCGCGGCGCACGGGCAT) were injected at the 1-4-cell stage into the yolk of zebrafish embryos according to published methods (Nasevicius and Ekker, 2000). The PMO was obtained from AVI Biopharma (Corvallis, Oreg.) and was injected at 3, 6 and 9 ng per embryo, we used 50 embroys per concentration. The experiment was repeated five times. Heart function and morphological anaylsis of larvae were scored one to 5 d later. Controls included the injection of only the injection buffer.
# [2] = cardiac myocytes, electrophysiology
# [3] = 6 ng PMO per embryo, 2 days post-fertilization
molecule,measurement,setting,value
CC(C)(C)c1ccc(C(O)CCCN2CCC(C(O)(c3ccccc3)c3ccccc3)CC2)cc1 (stereo not shown) [terfenadine],induction of 2:1 atrioventricular block (atrium beats twice while the ventricle beats once),zebrafish larvae,induced a 2:1 atrioventricular block
O=C(CCCN1CC=C(n2c(=O)[nH]c3ccccc32)CC1)c1ccc(F)cc1 [droperidol],induction of 2:1 atrioventricular block (atrium beats twice while the ventricle beats once),zebrafish larvae,induced a 2:1 atrioventricular block
CN(C)CCOC(c1ccccc1)c1ccccc1 [diphenhydramine],induction of 2:1 atrioventricular block (atrium beats twice while the ventricle beats once),zebrafish larvae,induced a 2:1 atrioventricular block
O=c1[nH]c2ccccc2n1C1CCN(CCCC(c2ccc(F)cc2)c2ccc(F)cc2)CC1 [pimozide],incubation time until 2:1 heart beat occurred,zebrafish larvae; 200 nM,3 h
same,arrest of the atrial and ventricular beat,zebrafish larvae; 10 μM,arrest of the atrial and ventricular beat
same,induction of 2:1 atrioventricular block (atrium beats twice while the ventricle beats once),zebrafish larvae,induced a 2:1 atrioventricular block
same,block of IKr,[1],block
CC(C)NCC(O)c1ccc(NS(C)(=O)=O)cc1 (stereo not shown) [sotalol],block of IKr,[1]; [2],block
COc1ccc(CCN2CCC(Nc3nc4ccccc4n3Cc3ccc(F)cc3)CC2)cc1 [astemizole],incubation time until 2:1 heart beat occurred,zebrafish larvae; 100 nM,6 h
same,"""real"" arrhythmia (atrium and ventricle beating very irregularly)",zebrafish larvae; 200 nM,arrhythmia occurred
same,induction of 2:1 atrioventricular block (atrium beats twice while the ventricle beats once),zebrafish larvae,induced a 2:1 atrioventricular block
O=C(CCCN1CCC(O)(c2ccc(Cl)cc2)CC1)c1ccc(F)cc1 [haloperidol],"""real"" arrhythmia (atrium and ventricle beating very irregularly)",zebrafish larvae; 10 μM,arrhythmia occurred
same,induction of 2:1 atrioventricular block (atrium beats twice while the ventricle beats once),zebrafish larvae,induced a 2:1 atrioventricular block
same,block of IKr,[1],block
PMO: 24-mer antisense PMO targeting the 5′ region of ZERG (SEQ ID NO:3): GACATGTCCGCGGCGCACGGGCAT (antisense GACATGTCCGCGGCGCACGGGCAT; all phosphorodiamidate morpholino (PMO)),larvae appearing wild-type,ZERG; 3 ng PMO per embryo,approximately 5%
same,larvae showing a slight bradycardia,ZERG; 3 ng PMO per embryo,approximately 81%
same,larvae showing the 2:1 phenotype,ZERG; 3 ng PMO per embryo,approximately 18%
same,bradycardia and other visible abnormalities,ZERG; 6 ng PMO per embryo,All larvae showed a slight bradycardia and no other visible abnormalities
same,"embryos showing irregular arrhythmia, atrial beat rate strongly reduced and uncoordinated",ZERG; [3],28%
same,embryos showing the 2:1 heart beat,ZERG; [3],67%
same,larvae with a 2:1 heart beat,"ZERG; 6 ng PMO per embryo, day 3",10%
same,phenotype compared with wildtype,"ZERG; 6 ng PMO per embryo, day 5",all larvae were indistinguishable from wildtype larvae
same,day of death after strong necrosis beginning with day 4,ZERG; 9 ng PMO per embryo,~6 days
same,heart morphology,ZERG; 9 ng PMO per embryo,changed to a pattern known for dilative cardiomyopathy
same,"larvae with strongly reduced heart beat rate and contractility, both chambers beating 1:1, circulation strongly reduced or absent",ZERG; 9 ng PMO per embryo,90%
same,edema and blood accumulation,"ZERG; 9 ng PMO per embryo, day 2",heart edema and blood accumulated on the yolk sac
same,PMO-injected larvae displaying the 2:1 phenotype,"ZERG; injected into yolk at the 1-4 cell stage, dose not given",About 90%
CSc1ccc2c(c1)N(CCC1CCCCN1C)c1ccccc1S2 (stereo not shown) [thioridazine],"""real"" arrhythmia (atrium and ventricle beating very irregularly)",zebrafish larvae; 10 μM,arrhythmia occurred
same,induction of 2:1 atrioventricular block (atrium beats twice while the ventricle beats once),zebrafish larvae,induced a 2:1 atrioventricular block
COc1cc(N)c(Cl)cc1C(=O)NC1CCN(CCCOc2ccc(F)cc2)CC1OC (stereo not shown) [cisapride],"""real"" arrhythmia (atrium and ventricle beating very irregularly)",zebrafish larvae; 10 μM,arrhythmia occurred
same,arrest of the atrial and ventricular beat,zebrafish larvae; 25 μM,arrest of the atrial and ventricular beat
same,induction of 2:1 atrioventricular block (atrium beats twice while the ventricle beats once),zebrafish larvae,induced a 2:1 atrioventricular block
same,block of IKr,[1]; [2],block
NC1=NCC2c3ccccc3Cc3ccccc3N12 (stereo not shown) [epinastine],effect on heart beat rate,zebrafish larvae; up to 250 μM,did not affect heart beat rate
